The source of these data is patent US7432276B2, “ABCA1 elevating compounds” (CV Therapeutics, Inc., priority 2005, dated 2008).

The test system of one assay is ABCA1 mRNA. In words: ABCA1 mRNA induction in THP-1 cells, QuantiGene branched DNA assay. Format: cell-based. Particulars: 10 μM test compound, 18-20 hours. A digest of the protocol: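 THP-1 cells, grown to subconfluence, treated with compounds at 10 and 3 μM in DMEM/BSA for 18–20 h. Lysates hybridized with ABCA1-specific probe 16–18 h at 53 °C; QuantiGene branched DNA luminescence gives fold increase over DMSO.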
As for `COc1cccc2c1[C@H]1Nc3ccc(-c4csc(C)n4)cc3C(C)(C)[C@H]1CO2` [Number 110, (12aS,6aR)-1-methoxy-7,7-dimethyl-9-(2-methyl(1,3-thiazol-4-yl))-7,12,12a,6a-tetrahydrochromano[4,3-b]quinoline], the “ABCA1 Induction Fold Increase over DMSO Vehicle” value (“ABCA1 Induction Fold Increase” for short) stood at 6.0 FOLD INCREASE. As to `COc1cccc2c1OC[C@@H]1[C@H]2Nc2ccc(CCC(=O)O)cc2C1(C)C` [Number 27, 3-((6aS,12aR)-4-methoxy-7,7-dimethyl-7,12,12a,6a-tetrahydrochromano[4,3-b]quinolin-9-yl)propanoic acid], the “ABCA1 Induction Fold Increase” value amounted to 3.3 FOLD INCREASE. Turning to `COc1cccc2c1OC[C@H]1[C@@H]2Nc2ccc(Br)cc2C1(C)C` [Number 86, (12aS,6aR)-9-bromo-4-methoxy-7,7-dimethyl-7,12,12a,6a-tetrahydrochromano[4,3-b]quinoline], the “ABCA1 Induction Fold Increase” value came to 8.4 FOLD INCREASE.

As to `CC(=O)c1ccc2c(c1)C(C)(C)C1COc3c(F)cccc3C1N2` (stereo not drawn) [Number 101, 1-(4-fluoro-7,7-dimethyl-7,12,12a,6a-tetrahydrochromano[4,3-b]quinolin-9-yl)ethan-1-one], the “ABCA1 Induction Fold Increase” value came to 4.0 FOLD INCREASE.

As for `COc1cccc2c1OC[C@H]1[C@H]2Nc2ccc(CCC(=O)O)cc2C1(C)C` [Number 28, 3-((12aR,6aR)-4-methoxy-7,7-dimethyl-7,12,12a,6a-tetrahydrochromano[4,3-b]quinolin-9-yl)propanoic acid], the “ABCA1 Induction Fold Increase” value is 1.9 FOLD INCREASE. As for `COc1cccc2c1OC[C@@H]1[C@@H]2Nc2ccccc2C1(C)C` [Number 38, (12aS,6aS)-4-methoxy-7,7-dimethyl-7,12,12a,6a-tetrahydrochromano[4,3-b]quinoline], the “ABCA1 Induction Fold Increase” value was 7.0 FOLD INCREASE. Regarding `COc1cccc2c1[C@H]1Nc3ccc(Cc4nnn[nH]4)cc3C(C)(C)[C@H]1CO2` [Number 84, (12aS,6aR)-1-methoxy-7,7-dimethyl-9-(1,2,3,4-tetraazol-5-ylmethyl)-7,12,12a,6a-tetrahydrochromano[4,3-b]quinoline], the “ABCA1 Induction Fold Increase” value is reported as 8.6 FOLD INCREASE. In the case of `CC1(C)c2cc(C(O)(C(F)(F)F)C(F)(F)F)ccc2NC2c3cc(F)cc(F)c3OCC21` (stereo not drawn) [Number 67, 2-(2,4-difluoro-7,7-dimethyl(7,12,12a,6a-tetrahydrochromano[4,3-b]quinolin-9-yl))-1,1,1,3,3,3-hexafluoropropan-2-ol], the “ABCA1 Induction Fold Increase” value is listed as 3.3 FOLD INCREASE.

Staying with this assay, now noted: Homo sapiens, 10 μM test compound, 18-20 hours, read-out: ABCA1 Induction Fold Increase over DMSO Vehicle.
As for `COc1cccc2c1[C@H]1Nc3ccc(C(=O)NCCO)cc3C(C)(C)[C@H]1CO2` [Number 117, (6aR,12aS)-6a,7,12,12a-tetrahydro-N-(2-hydroxyethyl)-1-methoxy-7,7-dimethyl-6H-chromeno[4,3-b]quinoline-9-carboxamide], the fold induction at 10 µM is 8.6. As for `COc1cccc2c1[C@H]1Nc3ccc(-n4ncc(C(=O)O)c4C)cc3C(C)(C)[C@H]1CO2` [Number 118, 1-((6aR,12aS)-6a,7,12,12a-tetrahydro-1-methoxy-7,7-dimethyl-6H-chromeno[4,3-b]quinolin-9-yl)-5-methyl-1H-pyrazole-4-carboxylic acid], the fold induction at 10 µM was 4.

Regarding `CCCCN1c2ccccc2C(C)(C)[C@H]2COc3cccc(OC)c3[C@H]21` [Number 174, (6aR,12aS)-12-butyl-6a,7,12,12a-tetrahydro-1-methoxy-7,7-dimethyl-6H-chromeno[4,3-b]quinoline], the fold induction at 10 µM stood at 1.9. With `COc1ccc2c(c1)C(C)(C)[C@@H]1COc3cccc(OC)c3[C@H]1N2C` [Number 176, (6aS,12aS)-6a,7,12,12a-tetrahydro-1,9-dimethoxy-7,7,12-trimethyl-6H-chromeno[4,3-b]quinoline], the fold induction at 10 µM was 2.9.
